Literature values as cited in PMC10572662 (International Journal of Molecular Sciences, 2023).

parameters: method as in PMID 17601630; conditions: native βCD and commercial βCD derivatives

| Substance | water solubility |
| --- | --- |
| 2-hydroxypropyl-βCD | 600 mg/mL |
| O-methyl-βCD | > 500 mg/mL |
| sulfobutylether-βCD | > 500 mg/mL |
